These results are taken from article PMC8084583, “Monobenzone, a Novel and Potent KDM1A Inhibitor, Suppresses Migration of Gastric Cancer Cells” (Frontiers in Pharmacology, 2021).

In the assay the target is KDM1A (Homo sapiens, UniProt O60341). Description: HRP-coupled fluorometric demethylase assay with recombinant KDM1A (H2O2/HRP counter-screen); dialysis and dilution reversibility; cell thermal shift in MGC-803. The class given is biochemical. For orientation: The purpose of a counterscreen is to sort out artefacts and off-target activity.

For orientation: IC50 means the concentration at which inhibition is half-maximal. As to `Oc1ccc(OCc2ccccc2)cc1` [monobenzone], the IC50 was determined as 451 nM.
